# Test results from ChEMBL document CHEMBL1201862, “PubChem BioAssay data set” (2004).
# The source made the active and inactive calls. Cut-off read from the data, not from the text of the source, for most assays here: actives have a measured EC50 and inactives only a lower limit.
# Tests used:
# [1] = Luminescence Cell-Based Dose Response HTS to Identify Inhibitors of 5'UTR Stem-Loop Driven Prion Protein mRNA Translation in H4 Neuroglioblastoma Cells. [Related pubchem assays: 1827 (Project Summary), 1813 (Primary HTS)]; assay type: functional
# [2] = inhibitors of firefly luciferase expression or activity, dose response, H4 neuroglioma cells, luminescence (AID 1990); assay type: functional, cell-based
# [3] = inhibitors of SNCA 5'UTR-driven reporter translation, confirmation, H4 neuroglioma cells, luminescence (AID 1988); assay type: functional, cell-based
# Protein RecA = target: T1, Protein RecA (Mycobacterium tuberculosis, UniProt P9WHJ3); test: Fluorescence Cell-Free Homogeneous Dose Retest to Identify Inhibitors of RecA-Intein Splicing Activity. [Related pubchem assays (depositor defined):AID2097, AID2223, AID489010, AID492950]; assay type: functional
# T1 sequence (P9WHJ3 whole entry): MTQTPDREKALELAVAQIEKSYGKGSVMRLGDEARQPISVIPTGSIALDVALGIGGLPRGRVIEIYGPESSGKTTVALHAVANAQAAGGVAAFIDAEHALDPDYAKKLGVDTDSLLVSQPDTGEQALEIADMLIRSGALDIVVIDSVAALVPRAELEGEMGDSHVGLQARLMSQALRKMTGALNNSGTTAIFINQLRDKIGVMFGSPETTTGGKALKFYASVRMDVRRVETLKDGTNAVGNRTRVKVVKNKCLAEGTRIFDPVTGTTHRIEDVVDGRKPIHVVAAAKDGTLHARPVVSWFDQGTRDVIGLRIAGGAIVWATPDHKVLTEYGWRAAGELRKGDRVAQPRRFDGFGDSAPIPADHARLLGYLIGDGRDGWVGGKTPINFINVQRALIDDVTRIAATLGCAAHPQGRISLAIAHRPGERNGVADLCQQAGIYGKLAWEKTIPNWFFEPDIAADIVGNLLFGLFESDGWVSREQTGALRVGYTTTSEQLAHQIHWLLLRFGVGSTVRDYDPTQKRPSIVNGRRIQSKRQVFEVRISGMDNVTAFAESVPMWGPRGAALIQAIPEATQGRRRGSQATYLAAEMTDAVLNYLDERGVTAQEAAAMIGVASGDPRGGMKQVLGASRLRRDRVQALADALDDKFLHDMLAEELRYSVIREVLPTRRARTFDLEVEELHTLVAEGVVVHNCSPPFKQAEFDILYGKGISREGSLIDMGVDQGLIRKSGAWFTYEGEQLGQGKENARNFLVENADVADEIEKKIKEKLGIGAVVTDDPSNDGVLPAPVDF
# [4] = target: T2, Replicative DNA helicase DnaB (Mycobacterium tuberculosis, UniProt P9WMR3); test: DnaB intein splicing inhibitors, dose response, biochemical, cell-free fluorescence (AID 449749); assay type: functional
# T2 sequence (P9WMR3 whole entry): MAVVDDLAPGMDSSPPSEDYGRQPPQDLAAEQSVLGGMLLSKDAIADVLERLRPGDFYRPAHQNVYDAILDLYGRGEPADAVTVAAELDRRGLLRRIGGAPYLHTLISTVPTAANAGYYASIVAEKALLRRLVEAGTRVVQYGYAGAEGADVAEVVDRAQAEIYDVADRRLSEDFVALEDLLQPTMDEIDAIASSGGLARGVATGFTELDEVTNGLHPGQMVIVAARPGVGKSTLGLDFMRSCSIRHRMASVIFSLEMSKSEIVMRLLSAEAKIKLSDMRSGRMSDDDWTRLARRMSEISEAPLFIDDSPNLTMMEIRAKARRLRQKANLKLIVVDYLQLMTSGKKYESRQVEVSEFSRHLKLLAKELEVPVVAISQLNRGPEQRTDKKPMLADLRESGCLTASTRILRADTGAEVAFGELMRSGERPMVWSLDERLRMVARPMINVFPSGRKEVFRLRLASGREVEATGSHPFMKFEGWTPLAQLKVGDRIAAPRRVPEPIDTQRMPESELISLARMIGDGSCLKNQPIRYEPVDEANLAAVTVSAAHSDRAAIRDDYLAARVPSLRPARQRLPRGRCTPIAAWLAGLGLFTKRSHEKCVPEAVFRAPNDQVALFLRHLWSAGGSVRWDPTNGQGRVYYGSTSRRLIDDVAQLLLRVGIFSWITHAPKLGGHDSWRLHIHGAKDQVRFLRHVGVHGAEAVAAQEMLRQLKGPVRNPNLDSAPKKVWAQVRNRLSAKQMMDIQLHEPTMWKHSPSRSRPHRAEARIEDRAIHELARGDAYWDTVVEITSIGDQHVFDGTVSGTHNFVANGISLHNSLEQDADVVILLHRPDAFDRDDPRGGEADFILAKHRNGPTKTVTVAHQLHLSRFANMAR
# [5] = target: T3, Corticotropin-releasing factor receptor 2/Corticotropin-releasing factor-binding protein (Homo sapiens, UniProt P24387+Q13324); test: Dose Response confirmation of uHTS hits for small molecule antagonists of the CRF-binding protein and CRF-R2 receptor complex.; assay type: functional; conditions: read-out: IC50_Mean
# T3 sequence (Q13324 whole entry): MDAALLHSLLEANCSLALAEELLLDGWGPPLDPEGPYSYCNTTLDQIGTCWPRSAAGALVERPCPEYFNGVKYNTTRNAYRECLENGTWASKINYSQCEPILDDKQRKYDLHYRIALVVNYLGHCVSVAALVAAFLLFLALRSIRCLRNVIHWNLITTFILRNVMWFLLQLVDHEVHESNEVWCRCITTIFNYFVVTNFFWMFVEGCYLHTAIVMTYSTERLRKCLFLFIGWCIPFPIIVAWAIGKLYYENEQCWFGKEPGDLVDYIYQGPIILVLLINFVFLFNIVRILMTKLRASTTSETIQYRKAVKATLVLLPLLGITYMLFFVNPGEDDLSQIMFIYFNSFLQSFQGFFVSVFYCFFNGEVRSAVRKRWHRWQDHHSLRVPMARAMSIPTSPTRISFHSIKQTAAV
# T3 sequence (P24387 whole entry): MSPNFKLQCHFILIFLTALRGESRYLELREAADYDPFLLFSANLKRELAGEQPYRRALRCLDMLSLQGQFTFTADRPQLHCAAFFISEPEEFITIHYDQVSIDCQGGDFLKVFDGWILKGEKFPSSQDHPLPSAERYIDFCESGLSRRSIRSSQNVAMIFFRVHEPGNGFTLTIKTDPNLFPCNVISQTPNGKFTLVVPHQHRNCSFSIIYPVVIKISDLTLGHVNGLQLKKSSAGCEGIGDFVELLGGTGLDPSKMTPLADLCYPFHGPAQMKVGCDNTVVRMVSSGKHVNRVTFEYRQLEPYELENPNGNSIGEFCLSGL
# [6] = target: T3, Corticotropin-releasing factor receptor 2/Corticotropin-releasing factor-binding protein; test: activators of CRF receptor 2 with binding protein – uHTS hits, confirmation (AID 602473); assay type: functional; conditions: read-out: EC50_Mean
# Streptococcus = test: Group A Streptococcus viability loss, dose response, counter-screen for streptokinase expression inhibitor project, luminescence, BacTiterGlo (AID 1915); assay type: functional, organism-based;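 note: potency for reduction of bacterial viability or growth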
# Streptokinase A = target: T4, Streptokinase A (Streptococcus pyogenes serotype M1, UniProt P10520); test: S. pyogenes streptokinase expression inhibitors, potency, dose response, plasminogen activation absorbance, OD405 (AID 1914); assay type: functional, Streptococcus pyogenes M1 GAS;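 note: secreted streptokinase activity via plasminogen activation per viability signal from cell pellet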
# T4 sequence (P10520 whole entry): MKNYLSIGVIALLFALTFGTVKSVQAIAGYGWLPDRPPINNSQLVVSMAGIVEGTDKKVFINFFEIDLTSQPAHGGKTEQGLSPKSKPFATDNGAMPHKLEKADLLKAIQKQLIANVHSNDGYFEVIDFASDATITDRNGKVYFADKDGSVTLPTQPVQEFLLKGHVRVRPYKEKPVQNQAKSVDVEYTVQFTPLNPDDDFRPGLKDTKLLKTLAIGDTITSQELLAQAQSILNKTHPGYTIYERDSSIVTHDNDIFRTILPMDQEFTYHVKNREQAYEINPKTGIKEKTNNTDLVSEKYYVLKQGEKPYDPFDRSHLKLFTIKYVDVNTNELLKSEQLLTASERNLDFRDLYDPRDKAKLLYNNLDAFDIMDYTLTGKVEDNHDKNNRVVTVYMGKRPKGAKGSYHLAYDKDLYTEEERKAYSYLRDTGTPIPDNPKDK
# Large T antigen = Large T antigen (Simian virus 40, UniProt P03070); assay type: functional, Betapolyomavirus macacae;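 note: Confirmatory-stage PubChem screen for compounds that inhibit SV40 T antigen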
# Large T antigen, sequence (P03070 whole entry): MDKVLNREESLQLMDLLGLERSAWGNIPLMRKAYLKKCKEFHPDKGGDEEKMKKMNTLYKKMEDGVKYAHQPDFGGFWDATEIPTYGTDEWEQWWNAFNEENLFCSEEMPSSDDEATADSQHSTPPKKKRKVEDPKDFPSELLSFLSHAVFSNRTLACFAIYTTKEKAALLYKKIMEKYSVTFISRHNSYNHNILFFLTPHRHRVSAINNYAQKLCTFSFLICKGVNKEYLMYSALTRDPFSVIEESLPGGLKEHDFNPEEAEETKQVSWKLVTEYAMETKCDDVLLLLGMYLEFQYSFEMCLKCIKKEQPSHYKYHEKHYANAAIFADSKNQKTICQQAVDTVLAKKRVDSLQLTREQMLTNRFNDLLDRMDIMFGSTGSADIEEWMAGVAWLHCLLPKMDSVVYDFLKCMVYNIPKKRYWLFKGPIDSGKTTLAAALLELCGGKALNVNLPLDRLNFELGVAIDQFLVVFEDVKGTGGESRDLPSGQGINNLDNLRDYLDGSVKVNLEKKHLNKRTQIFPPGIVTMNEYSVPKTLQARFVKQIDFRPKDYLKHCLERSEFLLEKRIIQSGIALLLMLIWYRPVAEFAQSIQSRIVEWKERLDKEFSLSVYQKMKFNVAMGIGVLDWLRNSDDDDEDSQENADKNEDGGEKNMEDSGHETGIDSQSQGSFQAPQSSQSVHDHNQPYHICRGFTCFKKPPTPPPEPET
# [7] = test system: Streptococcus sp. 'group A'; test: growth inhibition of control SK(-) GAS strain, dose response, counter-screen for streptokinase expression inhibitor project, luminescence, kanamycin, BacTiterGlo, confirmation (AID 1900); assay type: functional, organism-based
# [8] = HEp-2 cell cytotoxicity, dose response, cytotoxicity control for RSV inhibitor project, HTS (AID 2410); assay type: functional; conditions: human respiratory syncytial virus
smiles,measurement,setting,value
C=C(C)CN1CC[C@]23c4c5ccc(O)c4O[C@H]2c2[nH]c4ccccc4c2C[C@@]3(O)C1C5,EC50,[1],109 µM (active)
same,EC50,[2],13.7 µM (active)
same,EC50,[3],13.3 µM (active)
Cc1cccc(NCCC#N)c1,EC50,[1],> 120 µM (not active)
same,EC50,[2],> 120 µM (not active)
same,EC50,[3],> 120 µM (not active)
Nc1c(C(=O)NCc2ccc3c(c2)OCO3)nnn1CC(=O)Nc1ccc(Br)cc1,EC50,[1],> 120 µM (not active)
same,EC50,[2],> 120 µM (not active)
same,EC50,[3],18.3 µM (active)
Cc1ccc(S(=O)(=O)N[C@@H](CCCCN)C(=O)CCl)cc1,EC50,Protein RecA,12.6 µM (active)
same,AC50,[4],> 120 µM (inactive)
NNc1nnc(S)n1N,EC50,Protein RecA,86.4 µM (active)
same,AC50,[4],> 380 µM (inactive)
Cc1ccn2cc(CSc3ccccc3N)nc2c1,IC50,[5],> 47.1 µM (inactive)
same,EC50,[6],> 53 µM (inactive)
CCOC(=O)c1c(NC(=O)CSc2nnc(-c3c[nH]c4ccccc34)n2CCOC)sc2c1CCCC2,EC50,Protein RecA,> 380 µM (inactive)
same,AC50,[4],20.2 µM (active)
CCCOc1ccc(Cc2c(Cl)nc(SC)nc2OC)cc1,EC50,Streptococcus,> 150 µM (not active)
same,EC50,Streptokinase A,57.2 µM (active)
Cc1cc(C)nc(SCc2cc(=O)c(OC(=O)c3ccc(S(=O)(=O)N4CCCC4)cc3)co2)n1,IC50,Large T antigen,37.3 µM (active)
Cc1nn(-c2ccccc2)c2c1C1(C(=O)N(C(C)C)c3ccccc31)C(C#N)=C(N)O2 (configuration not stated),EC50,Protein RecA,2.88 µM (active)
same,AC50,[4],4.5 µM (active)
Cc1ccc(S(=O)(=O)N2CCOCC2)cc1C(=O)NC1CCN(Cc2ccccc2)CC1,IC50,[5],> 47.1 µM (inactive)
same,EC50,[6],> 53 µM (inactive)
COC(=O)c1sc(-c2cccs2)cc1NC(=O)/C=C/C(=O)O,EC50,Protein RecA,15.2 µM (active)
same,AC50,[4],82.9 µM (active)
COc1ccc(Br)cc1S(=O)(=O)Nc1nnc[nH]1,EC50,Streptokinase A,> 150 µM (not active)
CCCc1nn(C)c2c1C(c1ccncc1)C(C#N)=C(N)O2 (configuration not stated),EC50,Protein RecA,3.79 µM (active)
same,AC50,[4],9.7 µM (active)
CN(C)S(=O)(=O)c1ccc(Cl)c(-c2nnc3n2CCCCC3)c1,EC50,[1],> 120 µM (not active)
same,EC50,[2],> 120 µM (not active)
same,EC50,[3],> 120 µM (not active)
Cc1ccc(NC(=O)c2ccc(S(=O)(=O)N3CCC(C)CC3)cc2)cc1,EC50,[1],38.7 µM (active)
same,EC50,[2],> 120 µM (not active)
same,EC50,[3],12 µM (active)
CCOC(=O)c1c(C)c(C(=O)Nc2ccc(N(C)C)cc2)c(C)n1CC,IC50,Large T antigen,15.1 µM (active)
O=C(Nc1ccc(O)cc1)/C(=C/c1ccco1)NC(=O)c1ccccc1,IC50,Large T antigen,11 µM (active)
Cc1nc2c(c(N3CCOCC3)n1)OCC(=O)N2,EC50,[1],> 120 µM (not active)
same,EC50,[2],42.6 µM (active)
same,EC50,[3],20.7 µM (active)
COc1ccc(/C=N/OCC(=O)N=Nc2c(O)[nH]c3ccc(Br)cc23)cc1,IC50,[5],5.15 µM (active)
same,EC50,[6],> 53 µM (inactive)
O=C(Nc1ccn(Cc2c(F)c(F)cc(F)c2F)n1)c1ccc(COc2ccc(Cl)cc2Cl)o1,EC50,[7],36.3 µM (active)
same,EC50,Streptococcus,> 150 µM (not active)
same,EC50,Streptokinase A,> 150 µM (not active)
COc1cc2c(cc1OC)C1(Nc3c-2c(Cc2ccccc2)nn3-c2ccccc2)C(=O)Nc2ccccc21 (configuration not stated),EC50,Protein RecA,> 380 µM (inactive)
same,CC50,[8],> 50 µM (active)
same,AC50,[4],> 380 µM (inactive)
O=C(Nc1ccccc1Oc1cccnc1)C1CCCN(Cc2ccccc2O)C1 (configuration not stated),IC50,[5],> 47.1 µM (inactive)
same,EC50,[6],> 53 µM (inactive)
CN(C)c1ccc(NC(=O)CN2CCN(c3ccc(F)cc3)CC2)cc1,IC50,Large T antigen,5.83 µM (active)
COc1cccc(-n2c(=O)c3ccccc3n3c(S)nnc23)c1,IC50,Large T antigen,19.1 µM (active)
CC(/C=C1\SC(=S)N(NC(=O)c2cccc(O)c2)C1=O)=C\c1ccccc1,EC50,Protein RecA,25.2 µM (active)
same,AC50,[4],15 µM (active)
Cc1ccc(NC(=O)CSc2ncc(-c3ccccc3)n2C(=O)c2ccccc2)cc1,EC50,Protein RecA,1.77 µM (active)
same,AC50,[4],2.56 µM (active)
COc1ccc(N=C(S)NC(NC(=O)CCl)C(Cl)(Cl)Cl)c([N+](=O)[O-])c1 (configuration not stated),EC50,Protein RecA,3.31 µM (active)
same,AC50,[4],28.5 µM (active)
CCOC(=O)c1c(C)n[nH]c1NCc1ccccc1,EC50,[1],> 120 µM (not active)
same,EC50,[2],26 µM (active)
same,EC50,[3],> 120 µM (not active)
COc1cccc(-c2cc(C(F)(F)F)nc(N3CCC(C)CC3)n2)c1,EC50,[7],5.93 µM (active)
same,EC50,Streptococcus,13.2 µM (active)
same,EC50,Streptokinase A,97.6 µM (inconclusive)
O=C(Cc1csc(NC(=O)Nc2cccc(Cl)c2)n1)NCc1ccccn1,EC50,[7],7.28 µM (active)
same,EC50,Streptococcus,> 150 µM (not active)
same,EC50,Streptokinase A,> 150 µM (not active)
